Measurements reported in ChEMBL document CHEMBL1201862, “PubChem BioAssay data set” (2004).
Activity calls are given as the source filed them.

Assays:
[1] = biological target: Peroxisome proliferator-activated receptor gamma/Nuclear receptor coactivator 3 (Homo sapiens, UniProt P37231); test: (§1) TR-FRET dose response biochemical High Throughput Screening assay for agonists of the steroid receptor coactivator 3 (SRC-3) recruitment by the peroxisome proliferator-activated receptor gamma (PPAR gamma): non-selective agonists. [Related pubchem assays: 1301 (Confirmation screen.), 1048 (Primary screen.)]; type: functional
[2] = biological target: Peroxisome proliferator-activated receptor gamma/Nuclear receptor coactivator 1 (Homo sapiens, UniProt P37231); test: as §1, with “1 (SRC-1)” for “3 (SRC-3)”, “assays (depositor defined):AID1300, AID1808, AID504735, AID631]” for “assays: 1301 (Confirmation screen.), 1048 (Primary screen.)]”; type: protein assay
Peroxisome proliferator-activated receptor gamma/Nuclear receptor coactivator 1, sequence (P37231 whole entry): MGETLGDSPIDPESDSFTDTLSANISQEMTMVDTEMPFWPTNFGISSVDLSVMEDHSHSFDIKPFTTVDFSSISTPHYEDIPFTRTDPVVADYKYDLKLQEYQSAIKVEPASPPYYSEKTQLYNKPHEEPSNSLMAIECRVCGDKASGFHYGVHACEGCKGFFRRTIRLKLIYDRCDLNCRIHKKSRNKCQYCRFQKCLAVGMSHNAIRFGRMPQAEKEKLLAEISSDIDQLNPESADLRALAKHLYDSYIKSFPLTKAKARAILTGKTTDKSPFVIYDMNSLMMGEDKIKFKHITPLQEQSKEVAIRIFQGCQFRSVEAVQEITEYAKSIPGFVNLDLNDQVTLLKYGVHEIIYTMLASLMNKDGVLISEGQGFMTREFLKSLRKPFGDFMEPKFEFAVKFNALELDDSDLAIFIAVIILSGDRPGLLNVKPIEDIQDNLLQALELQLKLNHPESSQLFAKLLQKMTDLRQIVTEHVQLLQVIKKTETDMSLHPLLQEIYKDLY
Peroxisome proliferator-activated receptor gamma/Nuclear receptor coactivator 1, sequence (Q15788 whole entry, further chain): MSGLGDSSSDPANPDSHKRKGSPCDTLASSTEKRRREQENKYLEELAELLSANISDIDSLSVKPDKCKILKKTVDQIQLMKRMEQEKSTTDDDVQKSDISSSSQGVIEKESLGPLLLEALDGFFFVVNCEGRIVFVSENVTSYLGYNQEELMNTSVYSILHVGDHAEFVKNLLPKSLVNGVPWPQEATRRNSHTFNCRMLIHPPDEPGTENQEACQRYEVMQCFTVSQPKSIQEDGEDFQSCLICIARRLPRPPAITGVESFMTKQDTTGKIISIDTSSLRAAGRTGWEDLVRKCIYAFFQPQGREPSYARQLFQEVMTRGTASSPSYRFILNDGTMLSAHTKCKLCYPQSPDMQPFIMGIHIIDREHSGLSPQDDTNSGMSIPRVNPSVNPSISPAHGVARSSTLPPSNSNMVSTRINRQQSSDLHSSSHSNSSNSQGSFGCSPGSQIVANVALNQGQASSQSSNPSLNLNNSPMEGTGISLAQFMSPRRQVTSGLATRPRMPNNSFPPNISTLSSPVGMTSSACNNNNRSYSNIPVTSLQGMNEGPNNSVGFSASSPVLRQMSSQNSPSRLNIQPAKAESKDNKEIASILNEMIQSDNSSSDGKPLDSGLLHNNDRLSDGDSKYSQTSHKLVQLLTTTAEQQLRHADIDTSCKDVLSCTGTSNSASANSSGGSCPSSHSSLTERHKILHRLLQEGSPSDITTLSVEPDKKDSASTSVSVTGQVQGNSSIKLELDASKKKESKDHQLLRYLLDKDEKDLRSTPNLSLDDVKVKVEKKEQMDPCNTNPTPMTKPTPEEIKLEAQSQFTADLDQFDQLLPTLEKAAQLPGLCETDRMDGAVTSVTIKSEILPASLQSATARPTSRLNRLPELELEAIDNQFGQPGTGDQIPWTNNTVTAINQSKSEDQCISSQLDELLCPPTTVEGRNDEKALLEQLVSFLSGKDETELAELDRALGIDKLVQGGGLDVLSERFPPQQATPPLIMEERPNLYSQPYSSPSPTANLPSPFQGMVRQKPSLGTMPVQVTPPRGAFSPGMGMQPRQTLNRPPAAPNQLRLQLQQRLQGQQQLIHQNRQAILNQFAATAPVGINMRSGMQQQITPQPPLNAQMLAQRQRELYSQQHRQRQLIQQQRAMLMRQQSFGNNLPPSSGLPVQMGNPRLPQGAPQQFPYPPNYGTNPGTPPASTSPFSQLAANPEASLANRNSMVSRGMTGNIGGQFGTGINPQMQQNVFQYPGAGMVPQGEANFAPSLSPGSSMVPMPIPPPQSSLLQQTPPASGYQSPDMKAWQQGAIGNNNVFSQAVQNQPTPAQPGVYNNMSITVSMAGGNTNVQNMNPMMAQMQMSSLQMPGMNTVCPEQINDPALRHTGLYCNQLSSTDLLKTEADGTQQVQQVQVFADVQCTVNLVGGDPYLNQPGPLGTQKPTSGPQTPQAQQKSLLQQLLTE

[3] = biological target: T1, Polyadenylate-binding protein 1 (Homo sapiens, UniProt P11940); test: PABP1 MLLE–PAM2 interaction inhibitors, dose response, miRNA deadenylation inhibitor project, biochemical, fluorescence polarization, Cy5-PAM2 peptide, secondary (AID 602260); type: functional; conditions: read-out: IC50_Mean
T1 sequence (P11940 whole entry): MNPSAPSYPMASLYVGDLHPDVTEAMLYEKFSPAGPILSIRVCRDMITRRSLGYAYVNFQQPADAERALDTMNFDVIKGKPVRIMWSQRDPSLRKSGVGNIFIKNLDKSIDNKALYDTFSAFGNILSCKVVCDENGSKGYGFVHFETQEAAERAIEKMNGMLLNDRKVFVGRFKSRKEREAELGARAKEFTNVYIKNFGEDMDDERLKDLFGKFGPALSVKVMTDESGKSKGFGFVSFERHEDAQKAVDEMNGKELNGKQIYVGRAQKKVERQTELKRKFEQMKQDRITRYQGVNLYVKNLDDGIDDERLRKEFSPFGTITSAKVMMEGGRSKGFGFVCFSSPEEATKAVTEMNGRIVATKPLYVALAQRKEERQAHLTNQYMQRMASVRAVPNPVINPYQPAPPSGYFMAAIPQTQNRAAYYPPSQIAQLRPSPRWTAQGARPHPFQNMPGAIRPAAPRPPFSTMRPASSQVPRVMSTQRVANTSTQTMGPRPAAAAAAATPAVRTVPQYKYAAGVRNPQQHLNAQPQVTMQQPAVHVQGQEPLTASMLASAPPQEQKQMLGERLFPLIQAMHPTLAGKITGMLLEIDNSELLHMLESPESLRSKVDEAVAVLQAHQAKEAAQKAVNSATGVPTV

[4] = biological target: Peroxisome proliferator-activated receptor gamma/Nuclear receptor coactivator 2 (Homo sapiens, UniProt P37231); test: TR-FRET dose response biochemical High Throughput Screening assay for agonists of the steroid receptor coactivator 2 (SRC-2) recruitment by the peroxisome proliferator-activated receptor gamma (PPAR gamma): non-selective agonists. [Related pubchem assays: 1297, 1032 ]; type: functional
[5] = biological target: T1, Polyadenylate-binding protein 1; test: PABP1 MLLE–PAM2 binding inhibitor potency, dose response, biochemical, fluorescence polarization, FITC-PAM2 peptide (AID 602259); type: functional; conditions: read-out: IC50_Mean
[6] = biological target: T2, Acyl-homoserine lactone acylase PvdQ (Pseudomonas aeruginosa (strain LESB58), UniProt Q9I194); test: P. aeruginosa PvdQ acylase inhibitors, dose response, biochemical, fluorescence, plate reader and imaging, cherry-picks (AID 493231)
T2 sequence (Q9I194 whole entry): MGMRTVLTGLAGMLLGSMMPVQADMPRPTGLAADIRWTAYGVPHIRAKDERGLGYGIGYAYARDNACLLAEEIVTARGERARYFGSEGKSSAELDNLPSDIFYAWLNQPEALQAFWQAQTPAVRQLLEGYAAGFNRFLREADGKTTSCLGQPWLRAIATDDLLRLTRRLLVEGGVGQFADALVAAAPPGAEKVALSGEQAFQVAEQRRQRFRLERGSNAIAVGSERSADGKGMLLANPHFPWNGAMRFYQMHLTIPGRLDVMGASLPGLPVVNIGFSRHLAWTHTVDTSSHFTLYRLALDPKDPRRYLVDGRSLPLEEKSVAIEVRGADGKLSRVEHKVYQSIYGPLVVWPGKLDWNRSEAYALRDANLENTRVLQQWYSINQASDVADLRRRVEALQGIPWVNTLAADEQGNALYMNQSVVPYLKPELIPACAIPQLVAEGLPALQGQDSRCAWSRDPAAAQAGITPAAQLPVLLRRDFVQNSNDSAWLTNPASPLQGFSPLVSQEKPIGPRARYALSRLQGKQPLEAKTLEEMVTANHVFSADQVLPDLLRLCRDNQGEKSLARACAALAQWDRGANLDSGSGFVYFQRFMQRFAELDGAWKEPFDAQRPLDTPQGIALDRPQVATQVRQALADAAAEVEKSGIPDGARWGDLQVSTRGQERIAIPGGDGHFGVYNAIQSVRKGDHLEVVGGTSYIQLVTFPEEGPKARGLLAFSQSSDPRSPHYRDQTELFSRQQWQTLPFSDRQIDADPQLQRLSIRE

CAAX prenyl protease 2 = biological target: T3, CAAX prenyl protease 2 (Saccharomyces cerevisiae S288c, UniProt Q03530); type: biochemical
T3 sequence (Q03530 whole entry): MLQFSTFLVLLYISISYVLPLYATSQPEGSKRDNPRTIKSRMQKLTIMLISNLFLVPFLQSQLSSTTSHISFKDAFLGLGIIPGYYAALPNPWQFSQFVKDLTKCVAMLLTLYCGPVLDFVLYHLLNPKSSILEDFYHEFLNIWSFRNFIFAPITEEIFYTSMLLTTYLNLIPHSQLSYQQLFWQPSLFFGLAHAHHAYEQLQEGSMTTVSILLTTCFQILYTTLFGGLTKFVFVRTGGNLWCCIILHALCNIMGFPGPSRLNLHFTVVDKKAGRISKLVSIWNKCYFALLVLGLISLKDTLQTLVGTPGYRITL

[7] = biological target: G-protein coupled receptor 55 (Homo sapiens, UniProt Q9Y2T6); test: GPR55 agonists via beta-arrestin recruitment, primary screen, imaging, U2OS cells, beta-arrestin-GFP redistribution (AID 1961); type: functional
G-protein coupled receptor 55, sequence (Q9Y2T6 whole entry): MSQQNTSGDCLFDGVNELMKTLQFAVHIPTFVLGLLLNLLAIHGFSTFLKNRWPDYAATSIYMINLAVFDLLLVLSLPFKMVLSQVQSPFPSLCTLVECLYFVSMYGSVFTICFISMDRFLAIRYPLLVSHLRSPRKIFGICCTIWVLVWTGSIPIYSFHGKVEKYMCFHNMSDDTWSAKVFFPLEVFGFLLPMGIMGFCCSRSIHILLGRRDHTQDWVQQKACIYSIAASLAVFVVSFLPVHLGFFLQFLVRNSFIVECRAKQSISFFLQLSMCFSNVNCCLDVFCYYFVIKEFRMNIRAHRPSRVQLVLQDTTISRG

BJ [8] = test: cytotoxicity toward BJ-TERT-LT-ST fibroblasts, dose response, cell-based, RAS-independent, luminescence (AID 1935); type: functional; conditions: Homo sapiens;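 note: BJ fibroblasts immortalized with TERT plus LT and ST oncogenes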
HEK293 [9] = test: cells; type: functional, cell-based; conditions: Homo sapiens
HEK293 [10] = test: NOD2 signaling inhibitors in MDP-stimulated cells, cell-based, uHTS, luminescence (AID 2001); type: functional; conditions: Homo sapiens
BJ [11] = test: cytotoxicity toward BJ-TERT fibroblasts, dose response, cell-based, RAS-independent, luminescence (AID 1933); type: functional; conditions: Homo sapiens
HEK293 [12] = test: cells; type: functional, cell-based; conditions: Homo sapiens; remark: listed apart in the source
[13] = biological target: Nucleotide-binding oligomerization domain-containing protein 2 (Homo sapiens, UniProt Q9HC29); test: NOD2 signaling inhibitors, cell-based, luminescence, uHTS, HEK293 (AID 1566); type: functional
Nucleotide-binding oligomerization domain-containing protein 2, sequence (Q9HC29 whole entry, the tested form may be a part): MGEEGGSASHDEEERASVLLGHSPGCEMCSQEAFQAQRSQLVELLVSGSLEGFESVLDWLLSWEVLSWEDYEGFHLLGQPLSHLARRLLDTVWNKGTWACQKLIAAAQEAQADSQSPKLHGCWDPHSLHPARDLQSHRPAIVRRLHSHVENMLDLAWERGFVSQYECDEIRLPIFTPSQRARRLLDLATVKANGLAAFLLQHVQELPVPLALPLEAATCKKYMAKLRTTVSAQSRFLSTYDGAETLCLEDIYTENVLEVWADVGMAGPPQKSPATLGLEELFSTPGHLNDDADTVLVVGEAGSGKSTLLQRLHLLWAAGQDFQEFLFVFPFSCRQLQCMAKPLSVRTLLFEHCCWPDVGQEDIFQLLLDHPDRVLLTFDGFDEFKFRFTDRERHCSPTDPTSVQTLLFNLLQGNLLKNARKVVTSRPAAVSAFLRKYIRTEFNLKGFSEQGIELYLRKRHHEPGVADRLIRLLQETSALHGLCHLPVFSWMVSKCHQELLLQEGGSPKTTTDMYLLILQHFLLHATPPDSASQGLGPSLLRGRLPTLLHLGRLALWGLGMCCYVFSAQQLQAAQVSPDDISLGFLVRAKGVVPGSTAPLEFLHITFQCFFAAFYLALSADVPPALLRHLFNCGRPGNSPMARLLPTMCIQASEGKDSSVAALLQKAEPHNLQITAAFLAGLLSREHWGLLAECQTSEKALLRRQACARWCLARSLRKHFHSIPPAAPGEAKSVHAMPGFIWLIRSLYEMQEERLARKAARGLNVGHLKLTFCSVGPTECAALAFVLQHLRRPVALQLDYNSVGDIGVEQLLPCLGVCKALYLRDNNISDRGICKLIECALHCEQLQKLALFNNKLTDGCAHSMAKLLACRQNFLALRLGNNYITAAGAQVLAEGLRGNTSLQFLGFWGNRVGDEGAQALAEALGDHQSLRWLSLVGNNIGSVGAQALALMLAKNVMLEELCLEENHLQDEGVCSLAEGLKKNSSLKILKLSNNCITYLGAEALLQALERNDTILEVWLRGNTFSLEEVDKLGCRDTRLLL

HEK293 [14] = test: cells; type: functional, cell-based; conditions: Homo sapiens; remark: listed apart in the source
BJ [15] = test: cells; type: functional, cell-based; conditions: Homo sapiens
[16] = cytotoxicity toward DRD oncogenic fibroblasts, dose response, cell-based, non-viral oncogenic, luminescence (AID 1934); type: functional; conditions: Homo sapiens
Nonstructural protein 1 = Nonstructural protein 1 (Influenza A virus, UniProt Q194T2); type: functional, Influenza A virus (A/California/07/2009(H1N1))
Nonstructural protein 1, sequence (Q194T2 whole entry): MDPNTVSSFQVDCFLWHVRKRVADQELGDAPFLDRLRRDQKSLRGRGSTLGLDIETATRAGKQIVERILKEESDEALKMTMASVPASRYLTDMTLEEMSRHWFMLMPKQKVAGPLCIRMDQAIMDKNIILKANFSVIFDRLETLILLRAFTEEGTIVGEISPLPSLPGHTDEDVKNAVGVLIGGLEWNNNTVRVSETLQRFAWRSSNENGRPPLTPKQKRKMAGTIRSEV

HEK293 [17] = test: NOD1 signaling inhibitors, primary screen, cell-based, luminescence, uHTS (AID 1578); type: functional; conditions: Homo sapiens
Bcl-2-related protein A1 = biological target: T4, Bcl-2-related protein A1 (Mus musculus, UniProt Q07440); type: functional;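 note: confirmatory dose–response counterscreen on Bfl-1, used to check hits from a UBC13 polyubiquitin inhibitor campaign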
T4 sequence (Q07440 whole entry): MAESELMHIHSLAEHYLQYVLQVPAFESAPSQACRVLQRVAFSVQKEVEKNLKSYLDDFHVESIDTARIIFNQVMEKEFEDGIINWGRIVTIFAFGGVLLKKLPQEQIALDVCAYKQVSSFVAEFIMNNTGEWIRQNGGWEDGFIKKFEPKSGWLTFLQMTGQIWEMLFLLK

[18] = Luminescence Cell-Based Dose Response HTS to Identify Inhibitors of 5'UTR Stem-Loop Driven Prion Protein mRNA Translation in H4 Neuroglioblastoma Cells. [Related pubchem assays: 1827 (Project Summary), 1813 (Primary HTS)]; type: functional
[19] = tested on: Streptococcus sp. 'group A'; test: growth inhibition of control SK(-) GAS strain, dose response, counter-screen for streptokinase expression inhibitor project, luminescence, kanamycin, BacTiterGlo, confirmation (AID 1900); type: functional, organism-based
[20] = inhibitors of SNCA 5'UTR-driven reporter translation, confirmation, H4 neuroglioma cells, luminescence (AID 1988); type: functional, cell-based
[21] = biological target: T5, Ubiquitin-conjugating enzyme E2 N (Homo sapiens, UniProt P61088); type: functional
T5 sequence (P61088 whole entry): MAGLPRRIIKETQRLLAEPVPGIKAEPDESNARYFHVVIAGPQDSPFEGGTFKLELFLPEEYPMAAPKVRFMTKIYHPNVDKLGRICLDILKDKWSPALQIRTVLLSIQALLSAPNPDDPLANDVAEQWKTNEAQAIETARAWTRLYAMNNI

[22] = C. albicans growth with fluconazole, confirmation, fluorescence, retest (AID 2467); type: functional, cell-based
Streptococcus = test: Group A Streptococcus viability loss, dose response, counter-screen for streptokinase expression inhibitor project, luminescence, BacTiterGlo (AID 1915); type: functional, organism-based;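 note: potency for reduction of bacterial viability or growth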
[23] = microbe, parasite or virus in culture; type: functional; conditions: Mycobacterium tuberculosis
Streptokinase A = biological target: T6, Streptokinase A (Streptococcus pyogenes serotype M1, UniProt P10520); test: S. pyogenes streptokinase expression inhibitors, potency, dose response, plasminogen activation absorbance, OD405 (AID 1914); type: functional, Streptococcus pyogenes M1 GAS;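 note: secreted streptokinase activity via plasminogen activation per viability signal from cell pellet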
T6 sequence (P10520 whole entry): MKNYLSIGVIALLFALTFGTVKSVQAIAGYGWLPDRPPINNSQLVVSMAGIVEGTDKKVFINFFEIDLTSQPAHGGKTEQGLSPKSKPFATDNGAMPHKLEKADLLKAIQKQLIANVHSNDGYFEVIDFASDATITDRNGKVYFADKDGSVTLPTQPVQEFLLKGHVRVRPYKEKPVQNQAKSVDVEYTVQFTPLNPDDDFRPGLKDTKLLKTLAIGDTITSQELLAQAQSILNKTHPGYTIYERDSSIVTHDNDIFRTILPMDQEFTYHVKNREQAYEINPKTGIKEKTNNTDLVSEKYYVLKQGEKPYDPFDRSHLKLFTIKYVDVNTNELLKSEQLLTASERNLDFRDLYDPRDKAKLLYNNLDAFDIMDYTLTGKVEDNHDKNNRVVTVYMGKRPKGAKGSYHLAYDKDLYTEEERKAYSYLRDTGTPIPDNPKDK

[24] = NIH-3T3 fibroblast cytotoxicity, dose response, cytotoxicity control, cell-based, fluorescence, Alamar Blue, secondary assay (AID 2327); type: functional;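 note: NIH-3T3 mouse fibroblasts cultured with fluconazole at 8 µg/mL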
[25] = inhibitors of firefly luciferase expression or activity, dose response, H4 neuroglioma cells, luminescence (AID 1990); type: functional, cell-based
[26] = biological target: T5, Ubiquitin-conjugating enzyme E2 N; type: functional; remark: listed apart in the source

In the case of `CCOC(=O)c1sc(=S)n(-c2ccccc2Cl)c1SC`, the EC50 [1] is reported as > 79.4 µM (not active), the EC50 [2] is reported as 10.7 µM (inactive) and the IC50 [3] is reported as > 66 µM (inactive). The EC50 [4] was 12.5 µM (not active) and the IC50 [5] was > 66 µM (inactive).

With `Cc1ccc2scc(CN3CCCC3)c2c1` the AC50 [6] was 5.66 µM (active).

In the case of `COc1cccc(-c2c(C(=O)N/N=C/c3sccc3C)nnn2-c2nonc2N)c1`, the AC50 (CAAX prenyl protease 2) is reported as 7.8 µM (active).

In the case of `CC(=C/c1ccccc1)/C=N/NC(=O)c1nnn(-c2nonc2N)c1CN1CCC(C)CC1`, the EC50 [7] is reported as 0.601 µM (active).

With `C/C(=N\NC(=O)c1ccccc1F)c1ccccn1` the EC50 (BJ [8]) was 10.9 µM (active), the IC50 (HEK293 [9]) was 9.17 µM (active) and the IC50 (HEK293 [10]) was 3.76 µM (inactive). The EC50 (BJ [11]) was 12 µM (inconclusive), the IC50 (HEK293 [12]) was > 20 µM (inactive) and the EC50 [13] was > 20 µM (inactive). The IC50 (HEK293 [14]) was > 20 µM (inactive), the EC50 (BJ [15]) was 4.68 µM (inconclusive) and the EC50 [16] was 2.9 µM (active). The IC50 (Nonstructural protein 1) was 5.72 µM (active) and the EC50 (HEK293 [17]) was 18 µM (active).

With `CC[n+]1c(/C=C/N(C)c2ccccc2)n(-c2ccccc2)c2ccc(-c3nc4ccccc4s3)cc21` the IC50 (Bcl-2-related protein A1) was 13.2 µM (active), the EC50 [18] was 5.72 µM (active) and the EC50 [7] was > 32 µM (inactive). The EC50 [19] was 3.27 µM (active), the EC50 (BJ [8]) was 2.7 µM (inconclusive) and the EC50 [20] was 0.387 µM (active). The IC50 [21] was 7.42 µM (active), the EC50 (BJ [11]) was 2.49 µM (inconclusive) and the EC50 [22] was 0.337 µM (active). The EC50 (Streptococcus) was 12 µM (active), the CC50 [23] was 3.06 µM (active) and the EC50 (Streptokinase A) was 13.3 µM (active). For the same compound, the EC50 [24] was 90 µM (active), the EC50 (BJ [15]) was 2.93 µM (inconclusive) and the EC50 [16] was 3.03 µM (active). The EC50 [25] was 0.35 µM (active) and the IC50 [26] was 9.83 µM (active).
